# Results published in patent US5571820A, “Heterocyclic compound” (Taisho Pharmaceutical Co., Ltd., priority 1992, dated 1996).
# Experiments:
# [1] = test system: gastrointestinal tract motor action; assay: Activity on gastrointestinal motor in dogs (strain gauge force transducers, conscious); format: in vivo, Beagle dogs of both sexes; details: for Motility index (% of value prior to administration): gastric motor action after feeding
# Experimental: Experiment 3. Activity on Gastrointestinal Motor in Dogs The activity was determined by a modification of the method described in Gastroenterologia Japonica, 12, 275, 1977. Beagle dogs of both sexes weighing 9 to 15 kg were anesthetized with sodium pentobarbital and strain gauge force transducers were sutured on five (5) portions, i.e., for determining antral, duodenum, jejunal, ileal and colonal motor responses. A cannula for administering a drug was mounted persistently into the jugular vein. After recovery of the surgery, motor responses at those portions on the gastrointestinal tract in both during a fasting period and after feeding were determined in the conscious dogs. The compound of the present invention was administered by dissolving the compound in 5% lactate saline aqueous solution for intravenous injection and for oral administration by suspending the compound in 5% gum arabic aqueous solution. The motor index is shown in terms of a proportion (%) of a mean value calculated for 15 minutes to a value prior to administration (0 minute). The value for 0 minute was made a mean value for 30 minutes prior to the administration. Results
# intestinal transit = assay: Activity on intestinal transit in mice (carbon powder); format: in vivo, male ICR mice; details: for Intestinal transit (%): moving rate calculated for control animal
# Experimental: Experiment 5. Activity on Intestinal Transit in Mice
# The activity was determined by a modification of the method described in YAKURI-TO-CHIRYO, 10, 195, 1982.
# Male ICR mice weighing 20 to 30 g were used which were deprived of food for 24 hours. A suspension containing 5% carbon powder gum arabic was orally administered to the animal in a dose of 1 ml 15 minutes after subcutaneous administration or 30 minutes after oral administration, of drugs. The intestinal tract was removed 20 minutes after. The entire length of the intestinal tract and the distance of the carbon powders moved were measured, and a moving rate was calculated for control animal.
# gastric motility = assay: Activity on gastric motility in rat (balloon in stomach, conscious); format: in vivo, male Wistar rats; details: for Contraction frequency (% of value prior to administration) / Motility index (% of value prior to administration): 1 mg/kg i.p.
# Experimental: Experiment 2. Activity on Gastric Motility in Rat Male Wistar rats weighing 250 to 350 g were fasted for 18 hours and then provided for experiment. The abdominal cavity was opened under ether anesthesia and a rubber balloon was inserted into the stomach via the forestomach. A cannula for administering a drug was put in the peritoneal cavity. After recovery from the anesthesia, the balloon was connected to low pressure transducers to record gastric motility in the conscious state. The compound of the present invention was suspended in physiological saline and the suspension was intraperitoneally administered. Contraction frequency and motility index are shown in terms of a proportion (%) of a mean value calculated for 15 minutes to a value prior to administration (0 minute). The value for 0 minute was made a mean value for 30 minutes prior to the administration.
# [2] = Toxicity on consecutive 14-day oral administration in rat; format: in vivo, male Wistar rats
# Experimental: Experiment 6. Toxicity on Consecutive 14-day Oral Administration in Rat
# Toxicity of consecutive oral administration was investigated by oral administration of male Wistar rats of 5 weeks age, weighing 124 to 140 g and seven rats forming one group, orally received the compound of the present invention for 14 consecutive days in a daily dose of 100 mg/kg or 250 mg/kg once a day. During the course of administration, general conditions were observed and the body weight was measured. At the time when the administration was completed, hematological inspection, hematochemical inspection, urinalysis, anatomical finding, organ weight measurement and pathohistological inspection were performed.
# serotonin 4 receptor = biological target: T1, serotonin 4 receptor (Cavia porcellus, UniProt O70528); assay: Serotonin 4 receptor stimulating activity: twitch responses of electrically stimulated ileum longitudinal muscle strips; format: cell-based, guinea pig (Hartley)
# T1 construct: from tissue; host or cells: ileum longitudinal muscle strips of Hartley guinea pig
# Source text: Experiment 1. Serotonin 4 Receptor Stimulating Activity Compounds Tested
# Twitch responses were examined in longitudinal muscle strips of guinea pig by a modification of the method described in The Journal of Pharmacology and Experimental Therapeutics, 252, 1378, 1990.
# From Hartley guinea pigs, a section of ileum 25 cm in length and proximal to the ileocecal junction was removed. The longitudinal muscle strips obtained from two segments of ileum about 4 cm each in length were used for this experiment. The longitudinal muscle strips were suspended in Krebs' solution at 32° to 34° C. and bubbled with 95% O2 and 5% CO2 under a load of about 0.8 g. Twitch responses were recorded under electrical stimulation of 0.2 Hz, 1 msec pulse duration, using force displacement transducers. The longitudinal muscle strips, stimulated at supramaximal voltage, were allowed to equilibrate for about an hour. […] The test was carried out by exposing the strips to cumulative additions of agonist at least at 45-minute intervals.
# gastric emptying = assay: Activity on gastric emptying in rat (glass spheroids); format: in vivo, male Wistar rats
# Experimental: Experiment 4. Activity on Gastric Emptying in Rat The activity was investigated by a modification of the method described in British Journal of Pharmacology, 91, 263, 1987. Male Wistar rats weighing 170 to 220 g were used which were deprived of food for 24 hours. Glass spheroids of 500 mg/ml were orally administered to the animal in a dose of 1 ml 30 minutes after subcutaneous administration or 60 minutes after oral administration, of drugs. The glass spheroids remained in the stomach were recovered and their weight was measured to determine gastric emptying to control motility. The compound of the present invention was suspended in physiological saline and the resulting suspension was administered.
# [3] = 10 min after administration, N = 4
# [4] = 30 min after administration, N = 4
# [5] = 40 min after administration, N = 4
# [6] = 50 min after administration, N = 4
# [7] = 60 min after administration, N = 4
# [8] = 250 mg/kg daily, oral, 14 consecutive days
# T1 sequence (O70528 whole entry): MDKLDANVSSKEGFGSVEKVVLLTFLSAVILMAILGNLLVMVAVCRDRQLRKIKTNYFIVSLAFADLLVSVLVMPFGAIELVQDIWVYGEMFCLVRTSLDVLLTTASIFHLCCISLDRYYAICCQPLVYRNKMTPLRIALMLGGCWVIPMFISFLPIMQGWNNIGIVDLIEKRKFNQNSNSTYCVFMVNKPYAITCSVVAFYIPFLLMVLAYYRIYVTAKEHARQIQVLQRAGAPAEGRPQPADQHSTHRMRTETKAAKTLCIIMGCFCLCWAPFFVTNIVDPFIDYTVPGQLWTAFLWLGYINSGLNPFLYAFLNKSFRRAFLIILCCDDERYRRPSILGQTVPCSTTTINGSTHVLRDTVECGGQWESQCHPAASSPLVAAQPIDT
compound,measurement,setting,value
"CC(C)n1c(=O)c(C(=O)N[C@H]2C[C@H]3CC[C@@H](C2)N3C)cc2ccccc21 [Compound 1, endo-N-(8-methyl-8-azabicyclo[3.2.1]oct-3-yl)-1-isopropyl-2(1H)-quinolone-3-carboxamide]",Motility index (% of value prior to administration),"[1]; 0.3 mg/kg intravenous, 15 min, N = 3",371.4%
same,Motility index (% of value prior to administration),"[1]; 0.3 mg/kg intravenous, 30 min, N = 3",322.6%
same,Motility index (% of value prior to administration),"[1]; 0.3 mg/kg intravenous, 45 min, N = 3, *: P < 0.05",282.3%
same,Motility index (% of value prior to administration),"[1]; 0.3 mg/kg intravenous, 60 min, N = 3, *: P < 0.05",261.1%
same,Motility index (% of value prior to administration),"[1]; 0.3 mg/kg intravenous, 75 min, N = 3, **: P < 0.01",281.9%
same,Motility index (% of value prior to administration),"[1]; 0.3 mg/kg intravenous, 90 min, N = 3, *: P < 0.05",262.1%
same,Motility index (% of value prior to administration),"[1]; 0.3 mg/kg intravenous, 105 min, N = 3, *: P < 0.05",242.9%
same,Motility index (% of value prior to administration),"[1]; 0.3 mg/kg intravenous, 120 min, N = 3",195.2%
same,Motility index (% of value prior to administration),"[1]; 1 mg/kg oral, 15 min, N = 3",116.4%
same,Motility index (% of value prior to administration),"[1]; 1 mg/kg oral, 30 min, N = 3",193.5%
same,Motility index (% of value prior to administration),"[1]; 1 mg/kg oral, 45 min, N = 3, *: P < 0.05",191.4%
same,Motility index (% of value prior to administration),"[1]; 1 mg/kg oral, 60 min, N = 3, **: P < 0.01",206.9%
same,Motility index (% of value prior to administration),"[1]; 1 mg/kg oral, 75 min, N = 3, *: P < 0.05",202.2%
same,Motility index (% of value prior to administration),"[1]; 1 mg/kg oral, 90 min, N = 3, *: P < 0.05",192.5%
same,Motility index (% of value prior to administration),"[1]; 1 mg/kg oral, 105 min, N = 3, *: P < 0.05",207.3%
same,Motility index (% of value prior to administration),"[1]; 1 mg/kg oral, 120 min, N = 3",194.9%
same,Motility index (% of value prior to administration),"[1]; 1 mg/kg oral, 180 min, N = 3",195.8%
same,Motility index (% of value prior to administration),"[1]; 1 mg/kg oral, 210 min, N = 3",176.2%
same,Motility index (% of value prior to administration),"[1]; 1 mg/kg oral, 240 min, N = 3",182.8%
same,effect on the motor action of the gastrointestinal tract,"[1]; intravenous and oral, both during fasting period and after feeding",showed acceleration on the motor action of the gastrointestinal tract
same,effect on intestinal transit,intestinal transit; oral and subcutaneous,accelerated the intestinal transit
same,Intestinal transit (%),"intestinal transit; p.o. 1 mg/kg, 5 cases",100.6%
same,Intestinal transit (%),"intestinal transit; p.o. 3 mg/kg, 5 cases",121.4%
same,Intestinal transit (%),"intestinal transit; p.o. 10 mg/kg, 6 cases",120.4%
same,Intestinal transit (%),"intestinal transit; s.c. 1 mg/kg, 5 cases",116.6%
same,Intestinal transit (%),"intestinal transit; s.c. 3 mg/kg, 4 cases",117.8%
same,Intestinal transit (%),"intestinal transit; s.c. 10 mg/kg, 6 cases, **: P < 0.01",138.3%
same,Contraction frequency (% of value prior to administration),gastric motility; [3],182.3%
same,Motility index (% of value prior to administration),gastric motility; [3],169.3%
same,Motility index (% of value prior to administration),"gastric motility; 20 min after administration, N = 4",188.1%
same,Contraction frequency (% of value prior to administration),"gastric motility; 20 min after administration, N = 4, *: P < 0.05",243.5%
same,Contraction frequency (% of value prior to administration),gastric motility; [4],187.0%
same,Motility index (% of value prior to administration),gastric motility; [4],144.2%
same,Contraction frequency (% of value prior to administration),gastric motility; [5],134.7%
same,Motility index (% of value prior to administration),gastric motility; [5],83.3%
same,Contraction frequency (% of value prior to administration),gastric motility; [6],134.9%
same,Motility index (% of value prior to administration),gastric motility; [6],88.8%
same,Contraction frequency (% of value prior to administration),gastric motility; [7],141.6%
same,Motility index (% of value prior to administration),gastric motility; [7],108.8%
same,effect on gastric motility,"gastric motility; 1 mg/kg, i.p.",accelerated the gastric motility
same,toxic change,"[2]; 100 mg/kg daily, oral, 14 consecutive days",no toxic change was noted
same,body weight,[2]; [8],prevention of body weight increase was noted
same,"secondary changes in organs (liver, thymus, adrenogenital organ, adrenal, etc.)",[2]; [8],"secondary changes accompanied by aggravation of general conditions were observed in the liver, thymus, adrenogenital organ, adrenal, etc."
same,overall toxicity,"[2]; 14-day oral, taking into account pharmacological activities",the toxicity is reasonably assumed to be weak
same,EC50,serotonin 4 receptor,0.0214 µM
same,"serotonin 4 receptor stimulating activity, comparison with Compounds 2 to 7","serotonin 4 receptor; in words, from Table 2",much more potent serotonin 4 receptor stimulating activity than any of the other compounds
same,effect on gastric emptying,gastric emptying; oral and subcutaneous,dose-dependently accelerated gastric emptying
same,Residual rate in stomach (%),"gastric emptying; p.o. 0.03 mg/kg, 5 cases",67.3%
same,Residual rate in stomach (%),"gastric emptying; p.o. 0.3 mg/kg, 5 cases",64.5%
same,Residual rate in stomach (%),"gastric emptying; p.o. 3.0 mg/kg, 6 cases",42.0%
same,Residual rate in stomach (%),"gastric emptying; s.c. 0.1 mg/kg, 5 cases",51.8%
same,Residual rate in stomach (%),"gastric emptying; s.c. 1.0 mg/kg, 5 cases",50.3%
same,Residual rate in stomach (%),"gastric emptying; s.c. 10.0 mg/kg, 4 cases",36.8%
